Measurements published in US8809389B2, “Substituted alkynyl phenoxy compounds as new synergists in pesticidal compositions” (Endura S.p.A., priority 2009, dated 2014).

Columns and labels:
[1] = target: T1, purified resistance-associated esterase (E4) (Myzus persicae, UniProt P35501); test: Esterase interference assay (indirect determination of esterase inhibition); format: biochemical; details: for Esterase protection (%) after pre-incubation with compound: no esterase = 0%, uninhibited E4 = 100%
T1 construct: 5 g of aphids (stored at −20° C.) were homogenised in 0.02 M phosphate buffer pH 7.0; from tissue; host or cells: whole Myzus persicae aphids, clone 794JZ; homogenate purified over G-25 and DEAE Sepharose Fast Flow
T1 sequence (P35501 24-552): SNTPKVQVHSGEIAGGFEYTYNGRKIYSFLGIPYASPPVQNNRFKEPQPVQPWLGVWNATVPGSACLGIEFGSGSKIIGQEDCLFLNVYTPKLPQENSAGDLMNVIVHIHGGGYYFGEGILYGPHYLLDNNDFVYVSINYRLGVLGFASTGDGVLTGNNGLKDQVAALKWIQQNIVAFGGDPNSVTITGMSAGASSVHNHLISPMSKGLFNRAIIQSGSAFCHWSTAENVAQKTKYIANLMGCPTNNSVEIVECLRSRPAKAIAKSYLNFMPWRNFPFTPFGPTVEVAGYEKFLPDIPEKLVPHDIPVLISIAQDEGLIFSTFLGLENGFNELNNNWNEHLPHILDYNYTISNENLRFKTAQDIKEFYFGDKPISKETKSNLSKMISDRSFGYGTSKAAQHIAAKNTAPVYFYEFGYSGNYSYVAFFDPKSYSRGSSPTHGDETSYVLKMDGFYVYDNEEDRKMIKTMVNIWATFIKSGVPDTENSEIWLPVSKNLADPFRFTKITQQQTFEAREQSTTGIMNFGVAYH
Excerpt: Measuring the in vitro inhibition is not straight forward, as synergists may bind to a site other than the active site.
The esterase used was the well-characterised resistance associated esterase purified from M. persicae, E4, (aphid clone: 794JZ) as per Devonshire (1977) with some modifications(Devonshire A L, The properties of a carboxylesterase from the peach-potato aphid, Myzus persicae (Sulz.) and its role in conferring insecticide resistance. Biochem J 167: 675-683 (1977)). Briefly, 5 g of aphids (stored at −20° C.) were homogenised in 0.02 M phosphate buffer pH 7.0 and centrifuged at 20 000 g for 10 min. The supernatant was passed through a G-25 column using 0.02M Tris/HCl, pH 8.5 buffer. Unretarded fractions containing esterase activity were further chromatographed through DEAF Sepharose Fast Flow (Amersham Biosciences) and eluted with a linear 0-0.35 M NaCl gradient in 500 ml of Tris/HCl as above. Fractions containing carboxylesterase activity in the form of E4 were concentrated, desalted, and buffer exchanged to 0.02 M phosphate pH 7.0 for storage.
Interactions of the purified resistance-associated esterase (E4) with Compound of Example 2, Compound of Example 3, Compound of Example 4, Compound of Example 9 and Compound of Example 11 were performed using the ‘esterase interference assay’, as described by Khot et al., with some modifications. Devonshire A L, The properties of a carboxylesterase from the peach-potato aphid, Myzus persicae (Sulz.) and its role in conferring insecticide resistance. Biochem J 167: 675-683 (1977)). Briefly, stock solutions of novel synergists (3 mM in acetone) were pre-incubated with pure E4, to give a final concentration of 0.03 mM, for 16 h at 4° C. Aliquots (15 μl ) of E4, E4+Compound of Example 2, E4+Compound of Example 3, E4+Compound of Example 4, E4+Compound of Example 9 and E4+Compound of Example 11 were incubated for 1 h with 60 μl of serial dilutions of azamethiphos in 0.02M phosphate buffer, pH 7, in separate wells of a NUNC microplate. Aliquots (25 p1) of house fly head homogenate (source of AChE) were added to each well and incubated for 15 minutes at room temperature. E4 in acetone and buffer only served as the positive and the negative controls respectively. AChE activity was measured at 405 nm using a Tmax kinetic microplate reader (Molecular Devices, Menlo Park, Calif.). Readings were taken automatically for 10 min at 10 s intervals. The rate (mOD min^−1) was calculated by the integrated software, Softmax Pro 4.6. All treatments were performed in triplicate.
No added esterase is giving 0% esterase protection and uninhibited esterase (E4) is giving 100% protection.
The materials and procedure as stated in Example 13, paragraphs 13.1, 13.1.2, 13.1.2.1 and 13.1.2.2. have been used and the following results have been obtained: […]

[2] = tested on: Myzus persicae; test: Topical application bioassay on aphid clones: imidacloprid with or without synergist pre-treatment; details: aphid clone 5191A
Method: Aphid clones were reared on Chinese cabbage (Brassica rapa L. var. Pekinensis c.v Wong Bok) (Brassicaceae) leaves held in small plastic box-cages maintained at 18±2° C. with a 16:8 h light:dark photoperiod (Blackman R L, Variation in the photoperiodic response within natural populations of Myzus persicae (Sulzer). Bull Ent Res 60: 533-546 (1971)).
Clone 4106A is a laboratory insecticide-susceptible standard2 . […] Both aphid clones have been established from single parthenogenetic M. persicae females (Foster S P, Denholm I, Thompson R, Poppy G M, Powell W, Reduced response of insecticide-resistant aphids and attraction of parasitoids to alarm pheromone; a potential fitness trade-off. Bull Ent Res 95: 37-46 (2005)).
12.1.2 Topical Application Bioassay with 5191A Aphid Clone Young apterae were transferred to the abaxial surface of Chinese cabbage leaf discs (10 adults per leaf disc, at least 3 replicates per concentration) held on 1% agar in plastic containers (4 cm in diameter). The upper edge of each container was coated with Fluon (Whitford Plastics, UK) to prevent subsequent aphid escape from the leaf surface. After allowing 2 h for the aphids to settle, each was dosed with 0.25 μl of either 1 g L^−1 Compound of Example 3 dissolved in acetone or acetone only. After 4 h aphids were further treated with 0.25 μl imidacloprid in acetone (96% AR) using a
Burkard microapplicator (Burkard, Rickmansworth, UK). Controls were treated with acetone only. Treated aphids were stored at 18±2° C. and 16 h light: 8 h dark photoperiod. All bioassays were scored at the endpoint of 72 h after treatment. Adults incapable of co-ordinated movement (after gentle touching with a paint brush if necessary) were scored as dead. All bioassays were completed in triplicate.

CC#CCOc1cc2c(cc1CCC)OCO2 [Example 3, 5-(but-2-ynyloxy)-6-propyl-benzo[1.3]dioxole]
Reduction of esterase protection, comparison in words ([1]; E4 esterase interference assay, Examples 13 and 16): better activity than compounds 4, 7, respectively | Esterase protection (%) after pre-incubation with compound ([1]; Table 2 (Example 13), 0.03 mM compound pre-incubated with E4 16 h at 4° C.): 0.97% | Esterase protection (%) after pre-incubation with compound ([1]; second 'TABLE 3' (Example 16), procedure as Example 13): 0.98% | LC50 of imidacloprid after pre-treatment with the synergist ([2]; FE4(R3), 0.25 μl of 1 g L^−1 synergist 4 h before imidacloprid, scored 72 h): 1.25 ppm | SF, synergism factor (LC50 unsynergised / LC50 synergised) ([2]; imidacloprid plus 1 g L^−1 synergist pre-treatment): 72.4
